Source: patent publication US7196074B2, “Methods of making, using and pharmaceutical formulations comprising 7α, 11β-dimethyl-17β-hydroxyestra-4, 14-dien-3-one and 17 esters thereof” (The United States of America as represented by the …, priority 2000, dated 2007)

Legend:
Format in all cases: in vivo, Sprague-Dawley rats
ventral prostate weight [1] = test: Oral androgenic potency, ventral prostate weight assay in orchidectomized immature rats (gavage daily for seven days); conditions: for oral activity relative to methyltestosterone (potency ratio): oral administration, summary statement, standard methyltestosterone; for oral androgenic activity, times as potent as methyltestosterone: gavage daily for 7 days in 10% ethanol/sesame oil (oily carrier), ventral prostate weight
Description: (§1) Immature (about 21-day-old) Sprague-Dawley rats were orchidectomized under anesthesia, and randomly assignee to groups of ten animals for each dose level of the active undergoing testing. Each active was dissolved in 10% ethanol/sesame oil and administered by gavage (oral) each day for seven days beginning on the date of the orchidectomy. The animals were sacrificed 24 hours after the last dose, and the ventral prostate and seminal vesicles were excised, cleaned of fat and connective tissue, blotted on moist filter paper and weighed to the nearest 0.1 mg. See, e.g., Hershberger, L. et al, Myotrophic Activity of 19-nortestosterone And Other Steroids Determined By Modified Levator And Muscle Method, Proc. Soc. Exptl. Biol. Med 83 175–180 (1953). Regression analysis was performed by conventional methods using a PROPHET data management system. See, e.g., Bliss, C., The Statistics of Bioassay (Academic Press, New York, 1952); Hollister, C., Nucleic Acids Res. 16 1873–75 (1988). Ventral prostate weight was used as the endpoint because it is the sensitive organ to androgenic stimulation.
as §1, with “(oral) or subcutaneous injection” for “(oral)”, “mg.” for “mg. See, e.g., Hershberger, L. et al, Myotrophic Activity of 19-nortestosterone And Other Steroids Determined By Modified Levator And Muscle Method, Proc. Soc. Exptl. Biol. Med 83 175–180 (1953).”, “system.” for “system. See, e.g., Bliss, C., The Statistics of Bioassay (Academic Press, New York, 1952); Hollister, C., Nucleic Acids Res. 16 1873–75 (1988).”
Immature (about 21-day-old) Sprague-Dawley rats were orchidectomized under anesthesia, and randomly assignee to groups of ten animals for each dose level of the active undergoing testing. Four dosage forms were prepared. The first two forms constituted a solution of each active in 10% ethanol/sesame oil. The third and fourth dosage forms constituted a suspension of each active in an aqueous carrier (as described in Example 2, supra). These dosage forms were then administered by gavage (oral) to separate animal groups each day for seven days beginning on the date of the orchidectomy. Each carrier was also administered (alone) to separate groups of animals as a control. The animals were sacrificed 24 hours after the last dose, and the ventral prostate and seminal vesicles were excised, cleaned of fat and connective tissue, blotted on moist filter paper and weighed to the nearest 0.1 mg. See, e.g., Hershberger, L. et al, Myotrophic Activity of 19-nortestosterone And Other Steroids Determined By Modified Levator And Muscle Method, Proc. Soc. Exptl. Biol. Med. 83 175–180 (1953). Regression analysis was performed by conventional methods using a PROPHET data management system. See, e.g., Bliss, C., The Statistics of Bioassay (Academic Press, New York, 1952); Hollister, C., Nucleic Acids Res. 16 1873–75 (1988). Ventral prostate weight was used as the endpoint because it is the sensitive organ to androgenic stimulation.
Immature (about 21 day old) Sprague male rats were orchidectomized under anesthesia, and randomly assignee to groups often animals for each dose level of the active undergoing testing. Animals were maintained under standard conditions of housing and had free access to food and water. Illumination was controlled for 14 hour periods of light and 10 hours of darkness. Each active was dissolved in 10% ethanol/sesame oil and administered by gavage (oral) each day for seven days beginning on the date of the orchidectomy. […]

ventral prostate weight [2] = test: Subcutaneous androgenic potency, ventral prostate weight assay in orchidectomized immature rats (injection daily for seven days); conditions: ventral prostate weight assay following subcutaneous administration; alcohol of G = 1.0 (assigned); value is for the free alcohol of the listed ester
Description: as §1, with “(oral) or subcutaneous injection” for “(oral)”, “mg.” for “mg. See, e.g., Hershberger, L. et al, Myotrophic Activity of 19-nortestosterone And Other Steroids Determined By Modified Levator And Muscle Method, Proc. Soc. Exptl. Biol. Med 83 175–180 (1953).”, “system.” for “system. See, e.g., Bliss, C., The Statistics of Bioassay (Academic Press, New York, 1952); Hollister, C., Nucleic Acids Res. 16 1873–75 (1988).”
as §1, with “subcutaneous injection” for “gavage (oral)”, “Bid. Med.” for “Biol. Med”
Immature (about 22-day-old) Sprague-Dawley male rats were orchidectomized under anesthesia, and randomly assignee to groups of ten animals for each dose level of the active undergoing testing. […] Illumination was controlled for 14 hour periods of light and 10 hours of darkness.
Each active was administered by subcutaneous injection of 0.6 mg of test material in aqueous suspending vehicle (ASV) and/or an oily vehicle (10% ethanol/sesame oil) on the day of surgery. Testosterone enanthate in sesame oil was used as a standard. The ventral prostate and seminal vesicles were excised, cleaned of fat and connective tissue, blotted on moist filter paper and weighed to the nearest 0.1 mg. Regression analysis was performed by conventional methods using a PROPHET data management system. Ventral prostate weight was used as the endpoint because it is the sensitive organ to androgenic stimulation.

ventral prostate weight [3] = test: Duration of androgenic activity after subcutaneous injection, ventral prostate weight over weeks in orchidectomized immature rats; conditions: for area under the curve (AUC, trapezoidal rule) of ventral prostate weight: 12 week period, FIG. 22
Description: Immature (about 21-day-old) Sprague-Dawley rats were orchidectomized under anesthesia, and randomly assignee to groups of ten animals for each dose level of the active undergoing testing. Each active was administered by subcutaneous injection each day for seven days beginning on the date of the orchidectomy. The animals were sacrificed 24 hours after the last dose, and the ventral prostate and seminal vesicles were excised, cleaned of fat and connective tissue, blotted on moist filter paper and weighed to the nearest 0.1 mg. Regression analysis was performed by conventional methods using a PROPHET data management system. Ventral prostate weight was used as the endpoint because it is the sensitive organ to androgenic stimulation.
Except for testosterone enanthate, each active was formulated in two different carriers: (1) an aqueous suspension and (2) in sesame oil. Testosterone enanthate was formulated using the sesame oil carrier only, because it exists as a liquid at room temperature and could not therefore be formulated as an aqueous suspension.
(§2) The carrier used to provide the aqueous suspension was formulated as follows: 1 g benzyl alcohol, 0.5 g sodium carboxylethyl cellulose 50, 0.376 g disodium hydrogen phosphate dihydrate, 1.495 g sodium dihydrogen phosphate dihydrate, with water for injection (WFI) being added to bring volume of the carrier up to 100 ml.
Each formulation was prepared at a concentration of 0.6 mg/0.2 ml.
Immature (about 21-day-old) Sprague-Dawley rats were orchidectomized under anesthesia, and randomly assignee to groups of 40 or more. Animals received a single subcutaneous injection of 0.6 mg of each ester in 0.2 ml of an aqueous suspending carrier and/or oily carrier (10% ethanol/90% sesame oil or ethyl oleate) on the date of the orchidectomy. In cases where the ester was not solid at room temperature, 10% ethanol/sesame oil or ethyl oleate was used as the carrier. In this example, the carrier used to provide the aqueous suspension was formulated as follows: 1 g benzyl alcohol, 0.5 g sodium carboxylethyl cellulose 50, 0.376 g disodium hydrogen phosphate dihydrate, 1.495 g sodium dihydrogen phosphate dihydrate, with water for injection (WFI) being added to bring volume of the carrier up to 100 ml.
Five animals from each group were sacrificed at weekly or biweekly intervals, and the ventral prostate and seminal vesicles were excised, cleaned of fat and connective tissue, blotted on moist filter paper and weighed to the nearest 0.1 mg.
Ventral prostate weight was used as the endpoint because it is the sensitive organ to androgenic stimulation. Regression analysis was performed by conventional methods using the PROPHET data management system previously identified.
Immature (about 21-day-old) Sprague-Dawley rats were orchidectomized under anesthesia, and randomly assignee to groups of 40 or more. Animals received a single subcutaneous injection of 0.6 mg of the undecanoate in 0.2 ml of an aqueous suspending carrier and/or oily carrier (10% ethanol/90% sesame oil containing 5 mg/ml chlorobutanol as a preservative, or ethyloleate) on the date of the orchidectomy. The enanthate ester was formulated using the 10% ethanol/sesame oil or ethyloleate carrier as a first standard, with the 10% ethanol/sesame oil carrier used as a second standard.
as §2, with “In this example, the” for “The”
Immature (about 21-day-old) Sprague-Dawley rats were orchidectomized under anesthesia, and randomly assignee to groups of 40 or more. […] The enanthate ester was formulated using the 10% ethanol/sesame oil or ethyloleate carrier as a first standard, with the 10% ethanol/sesame oil carrier used as a second standard.

Row | SMILES | oral activity relative to methyltestosterone (potency ratio) (ventral prostate weight [1]) | Androgenic Potency (activity of corresponding alcohol) (ventral prostate weight [2]) | also measured
1 | CCCCCCCCCCC(=O)O[C@H]1CC[C@H]2[C@H]3[C@H]([C@@H](C)C[C@]12C)[C@H]1CCC(=O)C=C1C[C@H]3C | about twice | – | –
2 | CCCCCCCCCCC(=O)O[C@H]1CC=C2[C@H]3[C@H]([C@@H](C)C[C@@]21C)[C@H]1CCC(=O)C=C1C[C@H]3C | at least about twice | – | –
3 | CCCCC1CCC(C(=O)O[C@H]2CC=C3[C@H]4[C@H]([C@@H](C)C[C@@]32C)[C@H]2CCC(=O)C=C2C[C@H]4C)CC1 (stereo partly shown) | at least about six times | – | –
4 | CCCC[C@H]1CC[C@H](C(=O)O[C@H]2CC[C@H]3[C@H]4[C@H](CC[C@]23C)[C@H]2CCC(=O)C=C2C[C@H]4C)CC1 [A, 7α-Methyl-19-nortestosterone-17β-bucyclate] | – | 8.1^3 | –
5 | CCCC[C@H]1CC[C@H](C(=O)O[C@H]2CC[C@H]3[C@H]4[C@H](CC[C@]23C)[C@H]2CCC(=O)C[C@@H]2C[C@H]4C)CC1 [B, 7α-Methyl-5α-dihydro-19-nortestosterone-17β-bucyclate] | – | 1.2 | –
6 | CCCC[C@H]1CC[C@H](C(=O)O[C@H]2CC=C3[C@@H]4[C@H](C)CC5=CC(=O)CC[C@]5(C)[C@H]4CC[C@@]32C)CC1 [C, 7α-Methyl-14-dehydro-testosterone-17β-bucyclate] | – | 61.1 | –
7 | CCCC[C@H]1CC[C@H](C(=O)O[C@H]2CC=C3[C@H]4[C@H](CC[C@@]32C)[C@H]2CCC(=O)C=C2C[C@H]4C)CC1 [CDB-4327A, 7α-Methyl-14-dehydro-19-nortestosterone-17β-bucyclate, reference compound] | – | – | ventral prostate weight over time after single subcutaneous injection (in words) (ventral prostate weight [3]; 0.6 mg in 0.2 ml oily carrier, up to 20 weeks, FIG. 9): surprising stimulation of ventral prostate size over the entire 20-week observation period
8 | C[C@@H]1CC2=CC(=O)CC[C@@H]2[C@@H]2[C@@H]1C1=CC[C@H](O)[C@@]1(C)C[C@@H]2C [Compound III, 7α,11β-dimethyl-17β-hydroxyestra-4,14-dien-3-one] | ~1.96 | – | –
9 | CCCCCCCCCCC(=O)O[C@H]1CC=C2[C@H]3[C@H]([C@@H](C)C[C@@]21C)[C@H]1CCC(=O)C=C1C[C@H]3C [Compound IV, 7α,11β-dimethyl-17β-hydroxyestra-4,14-dien-3-one 17-undecanoate] | – | – | oral androgenic activity, times as potent as methyltestosterone (ventral prostate weight [1]): about two to about nine times; duration of activity on parenteral administration (summary in words) (ventral prostate weight [3]; parenteral administration, relative to other actives): not long-acting
10 | CCCCC1CCC(C(=O)O[C@H]2CC=C3[C@H]4[C@H]([C@@H](C)C[C@@]32C)[C@H]2CCC(=O)C=C2C[C@H]4C)CC1 (stereo partly drawn) [Compound V, 7α,11β-dimethyl-17β-hydroxyestra-4,14-dien-3-one 17β-4-n-butylcyclohexanecarboxylate] | – | – | oral androgenic activity, times as potent as methyltestosterone (ventral prostate weight [1]): about six to about eighteen times; ventral prostate weight over time after single subcutaneous injection (in words) (ventral prostate weight [3]; 0.6 mg in 0.2 ml aqueous vehicle): most dramatic increases and maintenance of ventral prostate weight; AUC of ventral prostate weight, times greater than for testosterone enanthate in oily carrier (ventral prostate weight [3]; active in aqueous vehicle versus testosterone enanthate in sesame oil/oily carrier, single subcutaneous 0.6 mg): about 3 times; area under the curve (AUC, trapezoidal rule) of ventral prostate weight (ventral prostate weight [3]; single subcutaneous 0.6 mg in aqueous vehicle): 1521 mg-weeks
11 | CCCCC1CCC(C(=O)OC2CCCC3C4C(C)CC5=CC(=O)CCC5(C)C4CCC23C)CC1 [D, 7α-Methyl-D-homo-testosterone-17β-bucyclate] | – | 36.4–61.7^3 | –
12 | CCCCCCC(=O)O[C@H]1CC[C@H]2[C@@H]3CCC4=CC(=O)CC[C@]4(C)[C@H]3CC[C@]12C [testosterone enanthate, reference compound] | – | – | area under the curve (AUC, trapezoidal rule) of ventral prostate weight (ventral prostate weight [3]; single subcutaneous 0.6 mg in oily carrier): 513 mg-weeks
